Values joined by “and” are separate entries in the source; they are usually repeats but may differ in a detail not shown here. Equal entries are not always repeated. Where two headings read alike, the source gives them in different places.
Key:
[1] = system: IL-23-stimulated Kit225 T cells with STAT-dependent luciferase reporter; experiment: Kit225 T cell assay, STAT-dependent luciferase reporter, IL-23 stimulated; format: cell-based, human; details: Homo sapiens, KIT225, 20 ng/mL human recombinant IL-23, 5-6 hours, read-out: IL-23 Kit225 Reporter, LE (IC50)
Outline: (§1)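 Kit225 T cells carrying a stably integrated STAT-dependent luciferase reporter, in RPMI with 10% heat-inactivated FBS, stimulated with 20 ng/mL human recombinant IL-23 or 200 U/mL human recombinant IFNα for 5-6 h. Luciferase expression read by Steady-Glo luminescence.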

[2] = system: IFNα-stimulated Kit225 T cells with STAT-dependent luciferase reporter; experiment: Kit225 T cell assay, STAT-dependent luciferase reporter, IFNα stimulated; format: cell-based, human; details: 5-6 hours, read-out: IFNa Kit225 Reporter, LE (IC50)
Outline: as §1

[3] = target: T1, His-tagged protein corresponding to amino acids 575-869 of human Tyk2 (Homo sapiens, UniProt P29597); experiment: Probe displacement assay (scintillation proximity, radiolabeled probe); format: binding; details: 2.5 nM Tyk2 (575-869), 40 nM [3H] probe, 30 minutes at room temperature
T1 construct: made in house
Description: The preparation of radiolabeled probe, (R)—N-(1-(3-(8-methyl-5-(methylamino)-8H-imidazo[4,5-d]thiazolo[5,4-b]pyridin-2-yl)phenyl)ethyl)-2-([^3H]methylsulfonyl)benzamide, was performed as described below: […]

[4] = Homo sapiens, KIT225, 200 U/mL human recombinant IFNα

T1 sequence (P29597 with tags, fused parts or gaps): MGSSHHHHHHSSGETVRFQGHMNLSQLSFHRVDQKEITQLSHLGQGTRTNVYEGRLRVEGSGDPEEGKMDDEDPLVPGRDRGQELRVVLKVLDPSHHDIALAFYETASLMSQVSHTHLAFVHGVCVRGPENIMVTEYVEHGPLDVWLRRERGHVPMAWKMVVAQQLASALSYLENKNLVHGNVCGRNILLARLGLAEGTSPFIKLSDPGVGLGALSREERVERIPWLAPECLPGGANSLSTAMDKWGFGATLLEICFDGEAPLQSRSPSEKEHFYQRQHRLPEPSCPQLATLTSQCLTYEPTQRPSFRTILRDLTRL

| SMILES | IC50 [1] [nM] | IC50 [2, 4] [nM] | EC50 [3] | IC50 ([2]; 200 U/mL human recombinant IFNα) [nM] |
| --- | --- | --- | --- | --- |
| CNc1cc(Nc2cccn(-c3cnc(C)cn3)c2=O)nn2c(C(=O)NCC(C)(C)CO)cnc12 [Example 6, N-(3-Hydroxy-2,2-dimethylpropyl)-8-(methylamino)-6-((1-(5-methylpyrazin-2-yl)-2-oxo-1,2-dihydropyridin-3-yl)amino)imidazo[1,2-b]pyridazine-3-carboxamide] | 70 | 140 | 15 nM |  |
| CNc1cc(Nc2cccn(-c3cnccn3)c2=O)nn2c(C(=O)NCC(C)(C)CO)cnc12 [Example 109] |  |  | 4 nM |  |
| CNc1cc(Nc2cccn(C)c2=O)nn2c(C(=O)NCC(C)(C)C)cnc12 [Example 207] |  | 180 | 15 nM and 22 nM | 260 |
| O=C(NC1CC1)c1cnc2c3c(c(Nc4cccn(-c5ccccn5)c4=O)nn12)OCCN3 [Example 240] | 60 | 210 |  |  |
| CC(C)(CO)CNC(=O)c1cnc2c3c(c(Nc4cccn(-c5ccccn5)c4=O)nn12)OCCN3 [Example 242] | 170 | 360 |  |  |
| CNc1cc(Nc2cccn(C3CCN(C(=O)C4(C(F)(F)F)CC4)CC3)c2=O)nn2c(C(=O)NC3CC3)cnc12 [Example 246] | 200 | 220 |  |  |
| CNc1cc(Nc2cccn(C3CCN(C(=O)C4CCCO4)CC3)c2=O)nn2c(C(=O)NC3CC3)cnc12 (stereo not drawn) [Example 247] | 420 | 350 |  |  |
| CNc1cc(Nc2cccn(C3CCN(C(=O)C4CC4(F)F)CC3)c2=O)nn2c(C(=O)NC3CC3)cnc12 (stereo not drawn) [Example 248] | 280 | 230 |  |  |
| CCC(=O)N1CCC(n2cccc(Nc3cc(NC)c4ncc(C(=O)NC5CC5)n4n3)c2=O)CC1 [Example 249] | 500 | 250 |  |  |
| CNc1cc(Nc2cccn(C3CCN(CC(F)F)CC3)c2=O)nn2c(C(=O)NC3CC3)cnc12 [Example 250] | 100 | 390 |  |  |
| CNc1cc(Nc2cccn(C3CCN(C(C)=O)CC3)c2=O)nn2c(C(=O)NC3C[C@@H]3F)cnc12 (stereo partly drawn) [Example 251] | 350 | 400 |  |  |
| CNc1cc(Nc2cccn(-c3ccc(C(C)(C)O)cn3)c2=O)nn2c(C(=O)NC3CC3)cnc12 [Example 252, N-cyclopropyl-6-((5′-(2-hydroxypropan-2-yl)-2-oxo-2H-[1,2′-bipyridin]-3-yl)amino)-8-(methylamino)imidazo[1,2-b]pyridazine-3-carboxamide] | 450 | 190 |  |  |
| CNc1cc(Nc2cccn(-c3ccc(CO)cn3)c2=O)nn2c(C(=O)NC3CC3)cnc12 [compound 253] | 180 | 450 |  |  |
| CNc1cc(Nc2cccn(-c3ccc(C(C)O)cn3)c2=O)nn2c(C(=O)NC3CC3)cnc12 (stereo not drawn) [compound 254] | 230 | 260 |  |  |
| CNc1cc(Nc2cccn(-c3cncc(C#N)n3)c2=O)nn2c(C(=O)NCC(C)(C)CO)cnc12 [compound 258] | 1220 | 590 |  |  |
| CNc1cc(Nc2cccn(-c3cnccn3)c2=O)nn2c(C(=O)NC3CCC(O)C3(C)C)cnc12 (stereo not drawn) [compound 259] | 610 | 420 |  |  |
| CNc1cc(Nc2cccn(-c3ccc(C(=O)N(C)C)cc3)c2=O)nn2c(C(=O)NCC(C)(C)CO)cnc12 [compound 267] | 360 | 290 |  |  |

Continued by falling IC50 [2, 4], values first:

| IC50 [1] [nM] | IC50 [2, 4] [nM] | EC50 [3] | IC50 ([2]; 200 U/mL human recombinant IFNα) [nM] | SMILES |
| --- | --- | --- | --- | --- |
| 290 | 120 |  |  | CCCCn1cc(Cl)cc(Nc2cc(NC)c3ncc(C(=O)NC4CC4)n3n2)c1=O [Example 244] |
| 90 | 110 |  |  | CNc1cc(Nc2cccn(-c3cnc(C(=O)N(C)C)cn3)c2=O)nn2c(C(=O)NCC(C)(C)CO)cnc12 [compound 262] |
| 120 | 110 |  |  | CNc1cc(Nc2cccn(-c3ccc(C(=O)N(C)C)cc3)c2=O)nn2c(C(=O)N[C@@H]3C[C@@H]3F)cnc12 [compound 266] |
| 200 | 100 | 16 nM |  | CNc1cc(Nc2cccn(-c3ccc(C#N)cc3)c2=O)nn2c(C(=O)NCC(C)(C)CO)cnc12 [Example 25] |
| 210 | 100 |  |  | O=C(NC1CCC1)c1cnc2c3c(c(Nc4cccn(-c5ccccn5)c4=O)nn12)OCCN3 [Example 239, N-Cyclobutyl-6-((2-oxo-2H-[1,2′-bipyridin]-3-yl)amino)-9,10-dihydro-8H-imidazo[1′,2′:1,6]pyridazino[4,5-b][1,4]oxazine-3-carboxamide] |
| 140 | 90 |  |  | O=C(N[C@H]1C[C@@H]1F)c1cnc2c3c(c(Nc4cccn(-c5ccccn5)c4=O)nn12)OCCN3 [Example 241] |
| 220 | 80 | 27 nM |  | CNc1cc(Nc2cccn(-c3ccccn3)c2=O)nn2c(C(=O)NC3CC3)cnc12 [Example 32] |
| 180 | 70 |  |  | CNc1cc(Nc2cccn(-c3ccc(C(=O)N(C)C)cn3)c2=O)nn2c(C(=O)N[C@@H]3C[C@@H]3F)cnc12 [Example 257, 6-((5′-(Dimethylcarbamoyl)-2-oxo-2H-[1,2′-bipyridin]-3-yl)amino)-N-((1R,2S)-2-fluorocyclopropyl)-8-(methylamino)imidazo[1,2-b]pyridazine-3-carboxamide] |
| 40 | 60 |  |  | CNc1cc(Nc2cccn(-c3ccc(C(=O)N4CCCC4)cn3)c2=O)nn2c(C(=O)N[C@@H]3C[C@@H]3F)cnc12 [compound 265] |
| 20 | 50 | 5 nM |  | CNc1cc(Nc2cccn(-c3nccs3)c2=O)nn2c(C(=O)NC3CC3)cnc12 [Example 35] |
| 160 | 50 |  |  | CCN(C)C(=O)c1ccc(-n2cccc(Nc3cc(NC)c4ncc(C(=O)N[C@@H]5C[C@@H]5F)n4n3)c2=O)nc1 [compound 263] |
| 90 | 40 |  |  | CNc1cc(Nc2cccn(-c3ccc(C(=O)N4CCC4)cn3)c2=O)nn2c(C(=O)N[C@@H]3C[C@@H]3F)cnc12 [compound 264] |
| 30.8 | 28 |  |  | CNc1cc(Nc2cccn(-c3cnc(C(C)(C)O)cn3)c2=O)nn2c(C(=O)N[C@@H]3C[C@@H]3F)cnc12 [Example 255, N-((1R,2S)-2-Fluorocyclopropyl)-6-((1-(5-(2-hydroxypropan-2-yl)pyrazin-2-yl)-2-oxo-1,2-dihydropyridin-3-yl)amino)-8-(methylamino)imidazo[1,2-b]pyridazine-3-carboxamide] |
| 50 | 20 |  |  | CCn1cc(Cl)cc(Nc2cc(NC)c3ncc(C(=O)NC4CC4)n3n2)c1=O [Example 243, 6-((5-chloro-1-ethyl-2-oxo-1,2-dihydropyridin-3-yl)amino)-N-cyclopropyl-8-(methylamino)imidazo[1,2-b]pyridazine-3-carboxamide] |
| 10 | 20 |  |  | CNc1cc(Nc2cccn(-c3ccc(OC)nn3)c2=O)nn2c(C(=O)N[C@@H]3C[C@@H]3F)cnc12 [compound 261] |
| 10 | 10 |  |  | CCOc1ccc(-n2cccc(Nc3cc(NC)c4ncc(C(=O)N[C@@H]5C[C@@H]5F)n4n3)c2=O)nn1 [compound 260] |
| 13 | 9.8 |  |  | CNc1cc(Nc2cccn(-c3cnc(C(=O)N(C)C)cn3)c2=O)nn2c(C(=O)N[C@@H]3C[C@@H]3F)cnc12 [Example 256, 6-((1-(5-(Dimethylcarbamoyl)pyrazin-2-yl)-2-oxo-1,2-dihydropyridin-3-yl)amino)-N-((1R,2S)-2-fluorocyclopropyl)-8-(methylamino)imidazo[1,2-b]pyridazine-3-carboxamide] |

Reference: patent US10273237B2, “Imidazopyridazine compounds useful as modulators of IL-12, IL-23 and/or IFN-α responses” (BRISTOL-MYERS SQUIBB COMPANY, priority 2013, dated 2019)
